Assay results taken from BindingDB's records for patent US11279687 (Valo Health, 2022).
pIC50: −log10 of the molar value.

Target: Nicotinamide phosphoribosyltransferase (Homo sapiens, UniProt P43490)
Test: Biochemical Inhibition Assay

Sequence of Nicotinamide phosphoribosyltransferase (P43490 whole entry): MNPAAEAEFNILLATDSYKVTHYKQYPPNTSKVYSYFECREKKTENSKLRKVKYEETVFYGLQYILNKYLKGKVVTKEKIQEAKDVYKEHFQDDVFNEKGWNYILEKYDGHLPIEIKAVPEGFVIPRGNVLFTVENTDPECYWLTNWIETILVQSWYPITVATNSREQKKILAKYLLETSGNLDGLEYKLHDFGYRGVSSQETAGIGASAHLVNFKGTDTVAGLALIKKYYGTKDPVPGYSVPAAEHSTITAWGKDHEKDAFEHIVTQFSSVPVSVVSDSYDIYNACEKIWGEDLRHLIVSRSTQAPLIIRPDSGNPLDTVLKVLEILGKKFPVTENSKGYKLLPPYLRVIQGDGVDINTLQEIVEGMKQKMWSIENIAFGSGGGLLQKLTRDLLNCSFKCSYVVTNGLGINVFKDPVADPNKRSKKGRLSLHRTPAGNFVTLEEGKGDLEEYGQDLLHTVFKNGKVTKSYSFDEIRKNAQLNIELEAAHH

pIC50: 7.92
Structure (SMILES): C[C@H]1C2C[C@H](C[C@@H]1NS(=O)(=O)c1ccc(NC(=O)NCc3cccnc3)cc1)C2(C)C [US11279687, Compound 86]
